“Also recorded” adds a separate entry of the source. Blank lines part the entries; values can stand above or below the compound they belong to.
Key:
IL-6 = IL-6 ELISA in LPS-stimulated Raw 264.7 cells; assay type: cell-based, mouse; details: Raw 264.7, 1 ug/ml LPS, supernatant at 24 hr
Description: To confirm the qRT-PCR result, LPS-mediated IL-6 production was analyzed in Raw 264.7 cells by ELISA. […] Moreover, SR11481 appears to work more efficiently at a lower concentration around 25 μM. Taken together, four lead compounds were identified through seven rounds of optimization and modification.
Enzyme-Linked Immunosorbent Assay (ELISA). Raw264.7 cells were grown in a 96-well plate and pretreated with vehicle, IKKi VII (2 uM) and small molecules (at indicated concentration) for 1 hr, followed by the stimulation with 1 ug/ml of LPS. Supernatant was collected 24 hr later for ELISA analysis. IL-6 concentration was measured using a mouse IL-6 ELISA kit (BD) according to the manufacturer's instructions.

[1] = Pharmacokinetics study after ip injection; assay type: in vivo; details: mice, 10 mg/kg ip, 2 hr
Description: To determine the stability of the NBD mimetics in vivo, the pharmacokinetics of the compounds was determined in serum following ip injection.
The pharmacokinetic profiles of the NBD mimetics were determined in male C57BL/6J mice (n=3). The drugs were formulated in 10:10:80 of DMSO:Tween 80:water and were dosed by intraperitoneal injection at a final dose of 10 mg/kg. Blood, brain, muscle, spleen, and liver were collected 2 hr post-treatment and were analyzed by mass spectrometry by following the protocol described in ref. 215 (42).

Ercc1−/Δ mice [2] = assay: Chronic treatment of Ercc1−/Δ mouse model of accelerated aging with SR12343; assay type: in vivo
Text: FIG. 41 summarizes the regimen and endpoints for the study of the effects of NBD mimetics on aging using the Ercc1^−/Δ mouse model of accelerated aging
Thus these novel NBD mimetics could be used not only for treatment of inflammatory and degenerative diseases, but also aging.

NF-κB [3] = assay: Dual-luciferase (NF-κB firefly / SV40 Renilla) reporter assay in HEK293 cells; assay type: cell-based; details: Homo sapiens; inhibition of TNF-α-induced NF-κB activation, HEK293, luciferase assays at 0, 25, 50, 100 and 150 μM, GraphPad
Description: Thus seven rounds of structural modification and optimization were performed to improve bioactivity and stability and more than one hundred small molecules were tested (data not shown). […] To minimize the influence of drug toxicity on the screening assay, a renilla luciferase reporter driven by the SV40 promoter was cotransfected with the NF-κB luciferase reporter into HEK293 cells as a co-reporter for normalization.
Inhibitory effects of NBD mimetics on NF-κB activation were measured by luciferase assays at multiple concentrations: 0, 25, 50, 100 and 150 μM. IC50 of NBD mimetics was determined based on the dose-dependent curve by using GraphPad.
HEK293 cells grown in 10 cm plates were co-transfected with co-reporter of Renilla plasmid driven by SV40 and luciferase plasmid driven by NF-κB at the ratio of 1:3 with Lipofectamine 2000 (Invitrogen). Transiently transfected HEK293 were grown and treated as described above and subjected to a dual-luciferase reporter assay according to the manufacturer's instruction. Firefly luciferase activity was normalized to Renilla luciferase to get the relative luciferase activity.

NF-κB [4] = assay: Firefly luciferase NF-κB reporter assay in TNF-α-stimulated HEK293 cells; assay type: cell-based; details: for inhibition of TNF-α-induced NF-κB activation (luciferase reporter), in words: 293 NF-κB luciferase reporter cells, 10 ng/ml TNF-α, compound 12909780 at 100 μM
Description: This model was used to screen a subset of the drug-like ZINC 8.0 database set (˜900,000 compounds) (Irwin et al., 2005). We were able to identify 161 hits that matched at least 6 features out of eight of the pharmacophore model. […] Two compounds termed NBDA-1 (Zinc-13) and NBDA-2 (Zinc-5), successfully passed these filters (See FIG. 4) and were purchased for biological testing. The compounds were then tested for ability to inhibit TNF-alpha-mediated induction of NF-κB activity in a 293 cells stably modified with a NF-κB luciferase reporter.
The activation of NF-κB was then quantitated by measuring the level of luciferase activity. […] Also, protein extracts were prepared from the same cells and the level of phospho-IkB determined, a marker of IKK activity.
To test if the small molecules identified by the in silico screen inhibit NF-κB activation, a HEK293 cell line stably expressing a luciferase reporter driven by a synthetic, NF-κB-dependent promoter was utilized. To induce NF-κB activation, cells were treated with 10 ng/ml of TNF-α and harvested three hours post-treatment for analysis of luciferase activity. […] To determine if compound 12909780 inhibited NF-κB in a dose dependent manner, concentrations were tested at 0, 6.25, 25, 50 and 100 μM.
HEK293 cells stably transfected with luciferase reporter plasmid driven by NF-κB were seeded in 96-well plate in triplicate and pretreated with DMSO or varying small molecules at indicated concentration for 30 min, followed by the stimulation of 10 ng/ml of TNFα for 3 hr. Cell were washed with PBS once and harvested in passive lysis buffer. Luciferase assay (Promega) was performed using a luminometer according to the manufacturer's instructions.

[5] = Degradation in the presence of serum; assay type: in vitro ADME; details: data not shown
Ercc1−/Δ mice [6] = assay: Systemic treatment of Ercc1−/Δ mice, intervertebral disc proteoglycan; assay type: in vivo, mouse; details: IP 3× a week, 10 mg/kg for 8 weeks
Description: The ability of the compounds to work systemically was also tested. In these experiments, Ercc1^−/Δ mice with accelerated aging (lifespan of 5 months) were treated systemically, 3× a week, by IP injection at a dose of 10 mg/kg for 8 weeks. Since we previously had shown that the NF-κB is a key factor in driving intervertebral disc degenerated, we assessed the effects of treatment on proteoglycan synthesis and content in the discus following treatment.

SMILES: O=C(CNc1ccc(Cl)cn1)NCCc1cccc(Br)c1 [SR12343, N-(3-bromophenethyl)-2-((5-chloropyridin-2-yl)amino)acetamide]
LPS-mediated mIL-6 production (ELISA) (IL-6): suppressed mIL-6 production in a dose-dependent manner
stability in serum after ip injection ([1]; 10 mg/kg): moderate stability; also recorded: less stable compared to SR12460
glycosaminoglycan (GAG) in intervertebral disc nucleus pulposus (Ercc1−/Δ mice [2]): improves pathology in the intervertebral disc as determined by measuring proteoglycans (GAG)
healthspan (Ercc1−/Δ mice [2]): extension of healthspan
clearance of blood glucose (oral glucose tolerance test) (Ercc1−/Δ mice [2]; 15 wk-old mice): improves clearance of glucose in an oral glucose tolerance test
senescence (Ercc1−/Δ mice [2]; 15 wk-old mice): reduces senescence
aging symptoms associated with frailty (Ercc1−/Δ mice [2]; different ages): reduces the onset of symptoms associated with frailty
overall score of the aging symptoms (Ercc1−/Δ mice [2]; different ages): reduces the onset of symptoms with chronic treatment
body fat percentage (NMR) (Ercc1−/Δ mice [2]; male mice): reduces loss of fat in male mice
forelimb grip strength (Ercc1−/Δ mice [2]; male mice): improves grip strength in male mice

IC50 (NF-κB [3]): 11.2 µM
SMILES: O=C(CNCCc1cc(F)cc(F)c1)Nc1ccc(Cl)cn1 [SR12460, N-(5-chloropyridin-2-yl)-2-((3,5-difluorophenethyl)amino)acetamide]
LPS-mediated mIL-6 production (ELISA) (IL-6): decreasing by half at 25 μM
stability in serum after ip injection [1]: significant stability 2 hr after injection

SMILES: Nc1ncccc1C(=O)OCC(=O)Nc1ccc(Cl)cc1F [NBDA-1, 2-((4-chloro-2-fluorophenyl)amino)-2-oxoethyl 2-aminonicotinate]
dose-dependent inhibition of TNF-α-induced NF-κB activation, in words (NF-κB [4]; 0, 6.25, 25, 50 and 100 μM): only high concentrations (50 and 100 μM) of the compound were able to inhibit TNF-α-induced NF-κB activation significantly
inhibition of TNF-α-induced NF-κB activation (luciferase reporter), in words (NF-κB [4]): slightly downregulated NF-κB activation
inhibition of TNF-α-induced NF-κB activation (luciferase reporter), in words (NF-κB [4]; listed as Zinc-13): able to reduce activation of NF-κB by TNF-alpha at low micromolar ranges
degradation in the presence of serum [5]: rapid degradation in the presence of serum
proteoglycan synthesis and content in the intervertebral disc (Ercc1−/Δ mice [6]): increased the proteoglycan content

— US10758522B2, “Small molecule analogs of the nemo binding peptide” (THE SCRIPPS RESEARCH INSTITUTE, priority 2015, dated 2020)
